Publication PMC8296573, “Synthesis and Biological Evaluation of Fingolimod Derivatives as Antibacterial Agents” (ACS Omega, 2021)
In brackets after ≈: the same amount, converted by molar mass. Read-outs that look alike come from different tables or passages of the source.

Experiments:
[1] = test system: A. baumannii NCTC 13423; test: Antibacterial activity, pre-exposure; type: cell-based, Acinetobacter baumannii; settings: for Average inhibition %, biofilms viability / Average inhibition %, planktonic cells viability / inhibition at 10 µM / inhibition at 15 µM / inhibition at 25 µM / inhibition at 50 µM: A. baumannii NCTC 13423, pre-exposure, ± SD; for inhibition at 10 µM / inhibition at 15 µM / inhibition at 25 µM / inhibition at 50 µM / MIC: Acinetobacter baumannii, NCTC13423
Procedure, shortened: (§1)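 Compounds are diluted in DMSO and plated, then bacteria are added to test prevention of growth and biofilm formation. After 18 h at 37 °C with shaking, planktonic OD and resazurin fluorescence are measured. Washed biofilms receive resazurin (30 min S. aureus, 60 min A. baumannii, 90 min P. aeruginosa, 37 °C), then crystal violet.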

[2] = test system: S. aureus ATCC 25923; test: Antibacterial activity, post-exposure on preformed 18-h-old biofilms; type: cell-based, Staphylococcus aureus; settings: for Average inhibition %, biofilms viability / Average inhibition %, planktonic cells viability / inhibition at 25 µM / inhibition at 50 µM / inhibition at 100 µM / inhibition at 200 µM: ± SD; for inhibition at 25 µM / inhibition at 50 µM / inhibition at 100 µM / inhibition at 200 µM: Staphylococcus aureus; for inhibition at 25 µM: ATCC25923, 25 µM; for inhibition at 50 µM: ATCC25923, 50 µM; for inhibition at 100 µM: ATCC25923, 100 µM; for inhibition at 200 µM: ATCC25923, 200 µM
Procedure, shortened: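 Compounds were applied to preformed 18-h biofilms after medium change and left 24 h. Read-outs: planktonic OD plus resazurin fluorescence (20 μM), biofilm metabolic activity by resazurin 30 min at 37 °C, then biomass by crystal violet absorbance at 595 nm after ethanol fixation.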

[3] = test system: S. aureus ATCC 25923; test: Antibacterial activity, pre-exposure (planktonic cells and biofilm formation); type: cell-based, Staphylococcus aureus; settings: for MIC / inhibition at 5 µM / inhibition at 10 µM / inhibition at 15 µM / inhibition at 25 µM: Staphylococcus aureus, ATCC25923; for inhibition at 5 µM / inhibition at 10 µM / inhibition at 15 µM / inhibition at 25 µM / Average inhibition %, biofilms viability / Average inhibition %, planktonic cells viability: pre-exposure, ± SD
Procedure, shortened: as §1

[4] = test system: P. aeruginosa ATCC 9027; test: Antibacterial activity, pre-exposure; type: cell-based, Pseudomonas aeruginosa; settings: for Average inhibition %, biofilms viability / Average inhibition %, planktonic cells viability / inhibition at 50 µM / inhibition at 100 µM / inhibition at 150 µM / inhibition at 200 µM: P. aeruginosa ATCC 9027, pre-exposure, ± SD; for inhibition at 50 µM / inhibition at 100 µM / inhibition at 150 µM / inhibition at 200 µM: ATCC9027
Procedure, shortened: as §1

[5] = 10 µM, read-out: Average inhibition %, biofilms biomass
[6] = 10 µM, read-out: Average inhibition %, planktonic cells turbidity
[7] = 15 µM, read-out: Average inhibition %, biofilms biomass
[8] = 15 µM, read-out: Average inhibition %, planktonic cells turbidity
[9] = 25 µM, read-out: Average inhibition %, biofilms biomass
[10] = 25 µM, read-out: Average inhibition %, planktonic cells turbidity
[11] = read-out: Average inhibition %, biofilms biomass
[12] = read-out: Average inhibition %, planktonic cells turbidity

`CCCCCCCCc1ccc(C(O)CC(N)(CO)CO)cc1` (stereo not drawn) [Compound 54, 3-Amino-3-(hydroxymethyl)-1-(4-octylphenyl)butane-1,4-diol] was tested. Which “Average inhibition %, biofilms viability” value ([1]; 10 µM) did it give?
The value was 0 ± 0%.

What about the “Average inhibition %, planktonic cells viability” value ([1]; 10 µM) of the same compound?
Its value is 4.7 ± 2.4%.

And the “Average inhibition %, biofilms viability” value ([1]; 15 µM)?
The value was 1.2 ± 2.1%.

And the “Average inhibition %, planktonic cells viability” value ([1]; 15 µM)?
The value was 6.4 ± 4.2%.

And the “Average inhibition %, biofilms viability” value ([1]; 25 µM)?
Its value is 6.1 ± 6.8%.

And the “Average inhibition %, planktonic cells viability” value ([1]; 25 µM)?
The value was 3.3 ± 4.4%.

And the “Average inhibition %, biofilms viability” value ([1]; 50 µM)?
The value was 100.2 ± 0.8%.

And the “Average inhibition %, planktonic cells viability” value ([1]; 50 µM)?
The value was 99.4 ± 0.2%.

What about the inhibition at 10 µM [1, 5] of the same compound?
The inhibition at 10 µM was 2.3 ± 4.1%.

What about the inhibition at 10 µM [1, 6] of the same compound?
Its inhibition at 10 µM is 0%.

And the inhibition at 15 µM [1, 7]?
Its inhibition at 15 µM is 1.5 ± 1.3%.

What about the inhibition at 15 µM [1, 8] of the same compound?
The inhibition at 15 µM was 0%.

What about the inhibition at 25 µM [1, 9] of the same compound?
Its inhibition at 25 µM is 6.1 ± 8.1%.

And the inhibition at 25 µM [1, 10]?
Its inhibition at 25 µM is 0%.

What about the inhibition at 50 µM ([1]; 50 µM, read-out: Average inhibition %, biofilms biomass) of the same compound?
Its inhibition at 50 µM is 81.2 ± 8.8%.

And the inhibition at 50 µM ([1]; 50 µM, read-out: Average inhibition %, planktonic cells turbidity)?
Its inhibition at 50 µM is 99 ± 1%.

What about the MIC ([1]; pre-exposure, Inactive = no activity up to 50 μM, > = some inhibition but no MIC reached, read-out: MIC A. baumannii NCTC 13423) of the same compound?
The MIC was 50 µM (≈ 16.2 µg/mL).

What about the MIC ([1]; supplementary molecular formula strings sheet, read-out: MIC (A. baumannii)) of the same compound?
Its MIC is 50 µM (≈ 16.2 µg/mL).

And the “Average inhibition %, biofilms viability” value ([2]; 25 µM)?
Its value is 11.2 ± 0.8%.

And the “Average inhibition %, planktonic cells viability” value ([2]; 25 µM)?
Its value is 15 ± 26.1%.

And the “Average inhibition %, biofilms viability” value ([2]; 50 µM)?
The value was 23.6 ± 12.7%.

And the “Average inhibition %, planktonic cells viability” value ([2]; 50 µM)?
The value was 0 ± 0%.

And the “Inhibition of viability and total biomass of preformed biofilms” value ([2]; 100 μM)?
The value was “at least 70%”.

And the “Average inhibition %, biofilms viability” value ([2]; 100 µM)?
Its value is 82.1 ± 27.3%.

And the “Average inhibition %, planktonic cells viability” value ([2]; 100 µM)?
Its value is 97.9 ± 3.4%.

What about the “Average inhibition %, biofilms viability” value ([2]; 200 µM) of the same compound?
The value was 99.8 ± 0.2%.

What about the “Average inhibition %, planktonic cells viability” value ([2]; 200 µM) of the same compound?
The value was 100.1 ± 0.2%.

What about the inhibition at 25 µM [2, 11] of the same compound?
The inhibition at 25 µM was 44 ± 14.9%.

And the inhibition at 25 µM [2, 12]?
The inhibition at 25 µM was 5.1 ± 6.4%.

What about the inhibition at 50 µM [2, 11] of the same compound?
The inhibition at 50 µM was 55.3 ± 3%.

What about the inhibition at 50 µM [2, 12] of the same compound?
Its inhibition at 50 µM is 17.4 ± 3.4%.

And the inhibition at 100 µM [2, 11]?
The inhibition at 100 µM was 83.5 ± 19%.

And the inhibition at 100 µM [2, 12]?
Its inhibition at 100 µM is 82.6 ± 4.7%.

And the inhibition at 200 µM [2, 11]?
The inhibition at 200 µM was 86.4 ± 3.9%.

And the inhibition at 200 µM [2, 12]?
The inhibition at 200 µM was 83.6 ± 3.7%.

What about the MIC ([3]; lowest concentration with no visible growth (>90% inhibition of turbidity and viability of planktonic cells), 18 h, read-out: MIC S. aureus ATCC 25923) of the same compound?
The MIC was 25 µM (≈ 8.09 µg/mL).

And the inhibition at 5 µM ([3]; 5 µM, read-out: Average inhibition %, biofilms biomass)?
The inhibition at 5 µM was 21.2 ± 18.4%.

What about the inhibition at 5 µM ([3]; 5 µM, read-out: Average inhibition %, planktonic cells turbidity) of the same compound?
The inhibition at 5 µM was 34.1 ± 32.1%.

And the inhibition at 10 µM [3, 5]?
The inhibition at 10 µM was 23.7 ± 8.7%.

And the inhibition at 10 µM [3, 6]?
Its inhibition at 10 µM is 38.3 ± 27%.

And the inhibition at 15 µM [3, 7]?
The inhibition at 15 µM was 39.3 ± 23.6%.

What about the inhibition at 15 µM [3, 8] of the same compound?
The inhibition at 15 µM was 44.1 ± 23.3%.

And the inhibition at 25 µM [3, 9]?
Its inhibition at 25 µM is 93.7 ± 4.1%.

And the inhibition at 25 µM [3, 10]?
Its inhibition at 25 µM is 98.8 ± 1%.

And the MIC ([3]; read-out: MIC (S. aureus))?
The MIC was 25 µM (≈ 8.09 µg/mL).

And the “Average inhibition %, biofilms viability” value ([3]; 5 µM)?
The value was 21.2 ± 4.7%.

What about the “Average inhibition %, planktonic cells viability” value ([3]; 5 µM) of the same compound?
The value was 11.9 ± 20.6%.

And the “Average inhibition %, biofilms viability” value ([3]; 10 µM)?
The value was 28.3 ± 15.2%.

What about the “Average inhibition %, planktonic cells viability” value ([3]; 10 µM) of the same compound?
The value was 10.2 ± 17.7%.

And the “Average inhibition %, biofilms viability” value ([3]; 15 µM)?
The value was 28.6 ± 10.1%.

And the “Average inhibition %, planktonic cells viability” value ([3]; 15 µM)?
The value was 8.5 ± 14.7%.

And the “Average inhibition %, biofilms viability” value ([3]; 25 µM)?
Its value is 99.5 ± 0.6%.

What about the “Average inhibition %, planktonic cells viability” value ([3]; 25 µM) of the same compound?
The value was 99.8 ± 0.1%.

And the “Average inhibition %, biofilms viability” value ([4]; 50 µM)?
Its value is 22.2 ± 26.9%.

And the “Average inhibition %, planktonic cells viability” value ([4]; 50 µM)?
The value was 74 ± 11.2%.

What about the “Average inhibition %, biofilms viability” value ([4]; 100 µM) of the same compound?
The value was 98.9 ± 1.5%.

And the “Average inhibition %, planktonic cells viability” value ([4]; 100 µM)?
Its value is 99.6 ± 0%.

What about the “Average inhibition %, biofilms viability” value ([4]; 150 µM) of the same compound?
The value was 97.5 ± 3.9%.

And the “Average inhibition %, planktonic cells viability” value ([4]; 150 µM)?
The value was 99.2 ± 0.8%.

And the “Average inhibition %, biofilms viability” value ([4]; 200 µM)?
The value was 99.7 ± 0.1%.

What about the “Average inhibition %, planktonic cells viability” value ([4]; 200 µM) of the same compound?
Its value is 99.7 ± 0.1%.

What about the MIC ([4]; Pseudomonas aeruginosa, ATCC9027, pre-exposure, Inactive = no activity up to 200 μM, > = some inhibition but no MIC reached, read-out: MIC P. aeruginosa ATCC 9027) of the same compound?
Its MIC is 50 to 100 µM (≈ 16.2 to 32.3 µg/mL).

What about the MIC ([4]; Pseudomonas aeruginosa, ATCC9027, supplementary molecular formula strings sheet, read-out: MIC (P. aeruginosa)) of the same compound?
Its MIC is 100 µM (≈ 32.3 µg/mL).

What about the inhibition at 50 µM ([4]; Pseudomonas aeruginosa, 50 µM, read-out: Average inhibition %, biofilms biomass) of the same compound?
The inhibition at 50 µM was 46.4 ± 22%.

And the inhibition at 50 µM ([4]; Pseudomonas aeruginosa, 50 µM, read-out: Average inhibition %, planktonic cells turbidity)?
Its inhibition at 50 µM is 76.9 ± 11.6%.

What about the inhibition at 100 µM ([4]; Pseudomonas aeruginosa, 100 µM, read-out: Average inhibition %, biofilms biomass) of the same compound?
Its inhibition at 100 µM is 96.7 ± 1.1%.

And the inhibition at 100 µM ([4]; Pseudomonas aeruginosa, 100 µM, read-out: Average inhibition %, planktonic cells turbidity)?
The inhibition at 100 µM was 98.2 ± 0.5%.

What about the inhibition at 150 µM ([4]; Pseudomonas aeruginosa, 150 µM, read-out: Average inhibition %, biofilms biomass) of the same compound?
The inhibition at 150 µM was 90.9 ± 7.2%.

What about the inhibition at 150 µM ([4]; Pseudomonas aeruginosa, 150 µM, read-out: Average inhibition %, planktonic cells turbidity) of the same compound?
The inhibition at 150 µM was 94.4 ± 1.4%.

And the inhibition at 200 µM ([4]; Pseudomonas aeruginosa, 200 µM, read-out: Average inhibition %, biofilms biomass)?
Its inhibition at 200 µM is 94.1 ± 1.7%.

What about the inhibition at 200 µM ([4]; Pseudomonas aeruginosa, 200 µM, read-out: Average inhibition %, planktonic cells turbidity) of the same compound?
The inhibition at 200 µM was 94.1 ± 1.3%.

What about the MIC ([4]; pre-exposure, Inactive = no activity up to 200 μM, > = some inhibition but no MIC reached, read-out: MIC P. aeruginosa ATCC 9027) of the same compound?
The MIC was 100 µM (≈ 32.3 µg/mL).
